# Data taken from patent publication US20090042993A1, “IDENTIFICATION OF NOVEL POST-TRANSLATIONAL PROTEIN MODIFICATIONS” (priority 2007, published 2009).
# Test system: BACE1
# Test: BACE1 steady-state levels by Western blot in stably transfected CHO cells
# Format: cell-based, human
# Method: Chinese Hamster Ovary (CHO) cells were grown in DMEM (Gibco BRL—Invitrogen, Carlsbad, Calif.) supplemented with 10% fetal bovine serum (FBS) and penicillin/streptomycin (Mediatech, Inc., Herndon, Va.) as described before (Puglielli et al., 2001, Nat. Cell Biol. 3: 905-912; Puglielli et al., 2003, J. Biol. Chem. 278: 19777-19783; Costantini et al., 2005, Biochem. J. 391: 59-67; Costantini et al., 2006, EMBO J. 25: 1997-2006). Cells were maintained in a humidified atmosphere with 5% CO2. For ceramide treatment, C6-ceramide (also simply called ceramide herein) was administered at the final concentration of 10 μM; treatment was started when cells were ˜30% confluent and carried out for 4 days, unless specified otherwise. Treatment with proteasome inhibitors MG-132 (5 μM) and lactacystin (10 μM) was done for 10 hours, as described earlier (Qing et al., 2004, FASEB J. 18: 1571-1573).
# Cell lysates were prepared in GTIP buffer (100 mM Tris-pH 7.6, 20 mM EDTA, 1.5 M NaCl) with 1% Triton X-100 (Roche, Basel, Switzerland), 0.25% NP40 (Roche), and a protease inhibitor cocktail (Roche) as described before (Puglielli et al., 2003, J. Biol. Chem. 278: 19777-19783; Costantini et al., 2005, Biochem. J. 391: 59-67). Briefly, cell monolayers were washed twice in PBS, scraped, transferred into eppendorf tubes, and centrifuged at 8,000 rpm for 5 min in a table-top centrifuge. Cell pellets were then lysed in ice for 30 min with the buffer indicated above, and centrifuged again at 14,000 rpm prior to the recollection of the protein extracts. Proteins were quantitated with the BCA Protein Assay (Pierce, Rockford, Ill.) following the manufacturer's instructions.
# For the immunoprecipitation of BACE1, cell lysates were pre-cleared with BioMag Protein A (Polysciences, Inc., Warrington, Pa.); beads were used at the concentration of 15 μl of the slurry per sample and separated with a magnetic holder. BACE1 was then immunoprecipitated with anti-BACE1 antibodies overnight and recovered with BioMag Protein A as above. The immunoprecipitate-bead complexes were washed 3 times in PBS and boiled for 10 min in SDS sample buffer (Invitrogen) with β-mercaptoethanol. Beads were then separated and the samples were analyzed by reducing SDS-PAGE.
# Western blotting was performed on 10% Bis-Tris, 4-12% Bis-Tris, or 7% Tris-Acetate SDS-PAGE systems (NuPAGE; Invitrogen) as described (Puglielli et al., 2001, Nat. Cell Biol. 3: 905-912; Puglielli et al., 2003, J. Biol. Chem. 278: 19777-19783; Costantini et al., 2005, Biochem. J. 391: 59-67; Costantini et al., 2006, EMBO J. 25: 1997-2006). The following antibodies were used: anti-BACE1 N-terminal (monoclonal antibody; R&D Systems, Minneapolis, Minn.); anti-BACE1 C-terminal (polyclonal antibody; Abcam, Cambridge, Mass.); anti-pro-BACE1 (polyclonal; Abcam); anti-acetylated lysine (monoclonal; Abcam); anti-calreticulin (ER marker, polyclonal; Abcam); anti-58 K Golgi/formiminotransferase cyclodeaminase (Golgi marker, polyclonal; Abcam); anti-syntaxin (Golgi marker, monoclonal; Abcam); anti-EEA1 (endosomes, monoclonal; BD Transduction Laboratories, Lexington, Ky.); anti-actin (polyclonal; Cell Signaling, Danvers, Mass.). Secondary antibodies (Amersham) were used at a 1:6000 dilution. Binding was detected by chemiluminescence (LumiGLO kit; KPL, Gaithersburg, Md.). Only a representative blot of at least three different experiments is shown throughout the paper.
# FIG. 1 illustrates how BACE1 is transiently acetylated in the lumen of the ER. For this experiment, CHO cells expressing human BACE1 were treated with C6-ceramide (also simply called ceramide herein) for different periods of time. BACE1 was then immunoprecipitated and analyzed by Western blotting. FIG. 1(A): CHO cells stably expressing BACE1 were treated with ceramide for the indicated time. BACE1 was immunoprecipitated from total cell lysates, separated on a 7% Tris-Acetate NuPAGE system, and then analyzed by Western blot using either anti-BACE1 or anti-acetylated lysine antibodies. […]
structure (smiles),measurement,setting,value
"CCCCCCCCCCCCC/C=C/[C@@H](O)[C@H](CO)NC(=O)CCCCC [ceramide, C6-ceramide]",steady-state levels of immature and mature BACE1,"CHO cells expressing human BACE1, ceramide 10 μM, apparent plateau at day 4",progressive increase in the steady-state levels
same,steady-state levels of BACE1Ala,CHO cells stably expressing BACE1Ala grown with ceramide,not affected
